This series has as its system 4T1 tumour-bearing BALB/c mice. The settings on record: mouse, in vivo.

Experimental: 6 week old female BALB/c mice were purchased (Charles River Laboratory BALB/cAnNCrl). 4T1 cells were a generous gift from Dr. Reginald Gorczynski. 4T1 tumours were induced as described^3 into 7-week old mice. Briefly, 1 million 4T1 cells between passages 3-20 in 100 μL of serum-free, antibiotic-free RPMI (Wisent Bioproducts 350-000-EL) were injected into the right inguinal 5th mammary fat pad using a 25G needle. The needle was inserted 1 mm lateral and 3 mm caudal to the nipple, and advanced towards the nipple by 2 mm. Mice were injected with nanoparticles 2 weeks post-induction unless specified otherwise. We aimed to investigate smaller tumours to minimize confounding by the necrotic core and maximize quantification accuracy. Tumour growth was homogeneous (average 14-day tumour size and standard deviation: 0.38±0.15 g). Tumours were size-matched between treatment groups to enable %ID and %ID/g comparisons between groups.
Mice were euthanized by isoflurane overdose followed by cervical dislocation at 2, 8, 24, or 72 hours post nanoparticle injection. Mouse organs were collected and weighed into borosilicate tubes for analysis by ICPMS^5,6. Collected organs included: heart, lungs, liver, spleen, stomach (with diet), large intestines (with diet), small intestines (with diet), kidneys, uterus, dorsal skin, and cardiac blood. For endpoint cardiac blood, mice hearts were quickly exposed by dissecting through the thoracic cavity. A 25G needle/1 mL syringe was inserted into the right ventricle of the beating heart. ˜600 μL cardiac blood was drawn then transferred to a glass tube. For reference, a control tube containing a known proportion of the injected dose was also prepared in a borosilicate tube. 800 μL of 16 M nitric acid (Caledon 7525-1-29) was added to each sample. They were digested at 80° C. in a water bath for 1 hour, and then digested overnight at 50° C. The next morning, 200 μL of 12 M hydrochloric acid (Caledon 6025-1-29) was added and the samples were digested at 80° C. for ≥1 hour. Samples were collected into polypropylene 50 mL centrifuge tubes (Biomart 110708) and then diluted to 40 mL in deionized water for a final acid concentration of 2.5% (v/v). 10 mL of these samples were then filtered through a 0.22 μm PES filter (Fisher Scientific SLGP033RS) into 15 mL centrifuge tubes (Sarstedt 62.554.002). A standard curve for elemental gold and magnesium were prepared by dilution in 2% (v/v) nitric acid and 0.5% (v/v) hydrochloric acid, with concentrations ranging from 0.0001 to 100 mg/mL, with a reference blank of 0. All samples were then quantified using a NexION 350x ICP-MS (PerkinElmer) with mass analyzer set to magnesium Mg 24, iridium Ir 192, and gold Au 197. A 500 μL injection loop was used, and each sample was mixed with carrier solution (2% (v/v) nitric acid) and iridium internal standard (1 μg/mL) before injection into the analyzer. Percent injected dose was the measured gold mass of each sample divided by the measured gold mass of the injected dose.

As to gold nanoparticles, the “increase in absolute accumulation in the liver” value turned out to be 6000 times; the “increase in absolute nanoparticle accumulation in tumour” value is reported as 7,300,000 times; the liver accumulation amounted to 16 % injected dose/gram; the “liver accumulation, large single dose vs same dose divided” value is recorded as “reduced”. Further, the tumour accumulation turned out to be 16 % injected dose/gram and the “tumour delivery, large single dose vs same dose divided” value is listed as “increased”.
